Test results from ChEMBL document CHEMBL2417394, “Exquisite selectivity for human toll-like receptor 8 in substituted furo[2,3-c]quinolines” (J Med Chem, 2013).
Blank lines part the entries; values can stand above or below the compound they belong to. Activity calls are given as the source filed them. The rule behind the calls is not given here.

Columns and labels:
[1] = target: T1, Toll-like receptor 8 (Homo sapiens) (UniProt Q9NR97); assay: Modulation of human TLR8 expressed in HEK293 cells co-transfected with MD2 and sAP assessed as induction of NF-kappaB activity by reporter gene assay; assay type: cell-based
T1 sequence (whole entry): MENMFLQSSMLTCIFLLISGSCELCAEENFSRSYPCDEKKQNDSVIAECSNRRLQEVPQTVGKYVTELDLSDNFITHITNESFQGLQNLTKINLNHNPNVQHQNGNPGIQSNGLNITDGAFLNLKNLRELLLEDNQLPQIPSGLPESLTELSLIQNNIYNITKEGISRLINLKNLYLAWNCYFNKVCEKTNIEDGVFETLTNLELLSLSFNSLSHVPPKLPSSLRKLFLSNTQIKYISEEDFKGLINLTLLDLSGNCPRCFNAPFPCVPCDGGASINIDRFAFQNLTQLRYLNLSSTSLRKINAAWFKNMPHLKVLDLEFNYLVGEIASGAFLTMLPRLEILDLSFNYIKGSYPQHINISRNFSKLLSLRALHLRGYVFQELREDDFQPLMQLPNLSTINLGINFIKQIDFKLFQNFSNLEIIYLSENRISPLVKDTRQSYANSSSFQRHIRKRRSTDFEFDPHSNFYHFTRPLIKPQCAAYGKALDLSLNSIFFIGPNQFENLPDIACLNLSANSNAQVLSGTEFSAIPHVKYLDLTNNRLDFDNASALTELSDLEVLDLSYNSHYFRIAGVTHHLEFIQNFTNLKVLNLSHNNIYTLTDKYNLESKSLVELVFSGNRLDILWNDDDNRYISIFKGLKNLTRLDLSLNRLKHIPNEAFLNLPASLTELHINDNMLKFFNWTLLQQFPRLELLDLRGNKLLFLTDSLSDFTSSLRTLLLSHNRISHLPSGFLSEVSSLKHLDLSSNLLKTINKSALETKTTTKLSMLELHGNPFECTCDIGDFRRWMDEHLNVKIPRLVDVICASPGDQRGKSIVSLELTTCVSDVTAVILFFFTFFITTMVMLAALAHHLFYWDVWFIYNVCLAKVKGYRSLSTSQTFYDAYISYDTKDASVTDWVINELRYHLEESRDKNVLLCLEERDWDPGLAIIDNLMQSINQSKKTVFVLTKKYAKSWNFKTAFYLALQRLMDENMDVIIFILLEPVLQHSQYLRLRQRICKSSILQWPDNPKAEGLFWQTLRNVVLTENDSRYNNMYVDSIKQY

[2] = target: T1, Toll-like receptor 8 (Homo sapiens); assay: Agonist activity at human TLR8 expressed in HEK293 cells co-transfected with MD2 and sAP assessed as induction of NF-kappaB activity by reporter gene assay; assay type: cell-based
[3] = target: T2, Nucleotide-binding oligomerization domain-containing protein 1 (Homo sapiens) (UniProt Q9Y239); assay: Modulation of NOD1 (unknown origin)
T2 sequence (whole entry): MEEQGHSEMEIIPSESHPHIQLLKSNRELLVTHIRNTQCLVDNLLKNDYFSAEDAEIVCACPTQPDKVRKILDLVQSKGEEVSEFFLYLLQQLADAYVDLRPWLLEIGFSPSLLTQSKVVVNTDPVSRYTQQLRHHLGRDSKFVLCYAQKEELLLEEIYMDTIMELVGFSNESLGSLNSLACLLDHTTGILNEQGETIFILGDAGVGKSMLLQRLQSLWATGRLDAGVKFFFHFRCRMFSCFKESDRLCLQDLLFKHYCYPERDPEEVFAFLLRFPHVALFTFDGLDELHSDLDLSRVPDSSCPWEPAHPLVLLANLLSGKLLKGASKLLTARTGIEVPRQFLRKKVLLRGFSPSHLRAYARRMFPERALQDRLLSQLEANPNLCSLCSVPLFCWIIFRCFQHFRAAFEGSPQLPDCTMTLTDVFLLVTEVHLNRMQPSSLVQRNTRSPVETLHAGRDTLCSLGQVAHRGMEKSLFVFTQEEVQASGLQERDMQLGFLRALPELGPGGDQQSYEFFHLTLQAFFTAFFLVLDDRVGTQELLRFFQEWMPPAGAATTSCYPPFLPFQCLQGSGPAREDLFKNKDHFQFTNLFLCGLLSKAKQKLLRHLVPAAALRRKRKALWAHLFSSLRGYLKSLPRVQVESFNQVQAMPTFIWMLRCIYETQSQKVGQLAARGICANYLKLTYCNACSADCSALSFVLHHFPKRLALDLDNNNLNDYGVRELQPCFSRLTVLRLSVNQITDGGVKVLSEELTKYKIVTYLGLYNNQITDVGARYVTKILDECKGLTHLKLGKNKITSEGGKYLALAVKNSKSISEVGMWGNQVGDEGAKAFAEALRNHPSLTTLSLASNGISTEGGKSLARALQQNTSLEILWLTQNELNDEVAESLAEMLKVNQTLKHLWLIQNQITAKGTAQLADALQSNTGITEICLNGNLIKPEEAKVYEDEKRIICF

[4] = target: T3, Toll-like receptor 9 (Homo sapiens) (UniProt Q9NR96); assay: Modulation of human TLR9 expressed in HEK293 cells co-transfected with MD2 and sAP assessed as induction of NF-kappaB activity by reporter gene assay; assay type: cell-based
T3 sequence (whole entry): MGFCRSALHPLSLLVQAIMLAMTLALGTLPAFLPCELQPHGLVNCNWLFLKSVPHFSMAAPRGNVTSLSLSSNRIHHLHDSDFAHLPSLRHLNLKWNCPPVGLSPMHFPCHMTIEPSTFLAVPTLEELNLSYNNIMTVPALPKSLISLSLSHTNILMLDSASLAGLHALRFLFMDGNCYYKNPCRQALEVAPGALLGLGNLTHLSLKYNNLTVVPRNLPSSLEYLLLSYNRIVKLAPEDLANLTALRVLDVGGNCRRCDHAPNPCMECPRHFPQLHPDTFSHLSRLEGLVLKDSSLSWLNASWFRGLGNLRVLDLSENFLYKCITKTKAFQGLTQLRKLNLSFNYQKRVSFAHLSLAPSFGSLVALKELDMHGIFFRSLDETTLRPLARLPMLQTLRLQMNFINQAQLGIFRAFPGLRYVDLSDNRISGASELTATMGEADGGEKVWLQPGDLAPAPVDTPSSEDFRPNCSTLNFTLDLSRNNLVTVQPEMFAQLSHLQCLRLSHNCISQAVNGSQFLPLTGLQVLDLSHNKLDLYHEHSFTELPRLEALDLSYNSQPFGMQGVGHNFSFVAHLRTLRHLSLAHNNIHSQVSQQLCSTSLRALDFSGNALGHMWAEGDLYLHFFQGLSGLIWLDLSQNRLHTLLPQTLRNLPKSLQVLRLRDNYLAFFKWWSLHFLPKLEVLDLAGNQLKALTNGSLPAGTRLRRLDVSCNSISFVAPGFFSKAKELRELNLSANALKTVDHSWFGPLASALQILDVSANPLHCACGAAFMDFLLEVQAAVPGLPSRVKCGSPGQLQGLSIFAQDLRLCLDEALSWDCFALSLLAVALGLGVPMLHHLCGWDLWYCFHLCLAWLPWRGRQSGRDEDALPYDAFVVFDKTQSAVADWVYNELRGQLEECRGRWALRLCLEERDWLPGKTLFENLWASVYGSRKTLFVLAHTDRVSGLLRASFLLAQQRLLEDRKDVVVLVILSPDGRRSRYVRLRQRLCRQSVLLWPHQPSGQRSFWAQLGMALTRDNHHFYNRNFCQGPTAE

[5] = target: Nucleotide-binding oligomerization domain-containing protein 2 (Homo sapiens) (UniProt Q9HC29); assay: Modulation of NOD2 (unknown origin)
Sequence of Nucleotide-binding oligomerization domain-containing protein 2 (Homo sapiens) (Q9HC29 whole entry, the tested form may be a part): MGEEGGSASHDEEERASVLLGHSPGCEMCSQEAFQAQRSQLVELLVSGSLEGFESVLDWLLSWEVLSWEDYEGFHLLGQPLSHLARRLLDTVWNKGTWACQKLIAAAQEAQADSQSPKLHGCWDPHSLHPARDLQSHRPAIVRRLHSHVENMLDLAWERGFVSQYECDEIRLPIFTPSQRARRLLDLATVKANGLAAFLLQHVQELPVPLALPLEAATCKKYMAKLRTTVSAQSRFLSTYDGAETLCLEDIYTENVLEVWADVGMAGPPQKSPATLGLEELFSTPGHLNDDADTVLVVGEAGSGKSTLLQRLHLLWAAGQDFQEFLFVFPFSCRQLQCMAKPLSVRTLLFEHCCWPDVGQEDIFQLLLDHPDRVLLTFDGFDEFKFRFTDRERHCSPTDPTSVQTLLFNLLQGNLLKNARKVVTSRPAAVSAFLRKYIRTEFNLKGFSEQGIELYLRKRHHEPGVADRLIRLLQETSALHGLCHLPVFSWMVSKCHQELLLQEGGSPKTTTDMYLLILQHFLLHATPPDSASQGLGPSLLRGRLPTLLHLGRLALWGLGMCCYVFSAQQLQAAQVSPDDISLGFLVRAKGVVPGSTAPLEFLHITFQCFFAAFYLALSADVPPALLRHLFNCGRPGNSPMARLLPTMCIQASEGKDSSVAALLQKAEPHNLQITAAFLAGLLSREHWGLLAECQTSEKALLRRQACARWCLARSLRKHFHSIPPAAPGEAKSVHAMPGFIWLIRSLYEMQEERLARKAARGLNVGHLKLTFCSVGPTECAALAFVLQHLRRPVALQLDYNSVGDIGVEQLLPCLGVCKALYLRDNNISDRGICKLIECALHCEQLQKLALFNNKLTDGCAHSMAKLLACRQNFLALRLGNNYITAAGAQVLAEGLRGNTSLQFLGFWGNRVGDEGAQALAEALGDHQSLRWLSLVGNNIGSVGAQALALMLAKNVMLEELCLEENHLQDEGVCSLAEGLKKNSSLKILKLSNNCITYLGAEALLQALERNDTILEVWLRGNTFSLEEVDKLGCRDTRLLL

[6] = target: T1, Toll-like receptor 8 (Homo sapiens); assay: Agonist activity at TLR8 in human PBMC assessed as increase of MIP1beta level after 12 hrs
[7] = target: T1, Toll-like receptor 8 (Homo sapiens); assay: Agonist activity at TLR8 in human PBMC assessed as increase of G-CSF level after 12 hrs
[8] = target: T1, Toll-like receptor 8 (Homo sapiens); assay: Agonist activity at TLR8 in human PBMC assessed as increase of GRO level after 12 hrs
[9] = target: T1, Toll-like receptor 8 (Homo sapiens); assay: Agonist activity at TLR8 in human PBMC assessed as increase of MIP1alpha level after 12 hrs

SMILES: CCCCc1cc2c(o1)c(N)nc1ccccc12
- Activity [3]: Active
- Activity [4]: Active
- Activity [5]: Active

SMILES: CCCCc1nc2c(N)nc3ccccc3c2n1Cc1ccccc1
- Activity [6]: inactive
- Activity [7]: inactive
- Activity [8]: inactive
- Activity [9]: inactive

SMILES: CCCc1nc2c(N)nc3ccccc3c2s1
- Activity [6]: Active
- Activity [7]: Active
- Activity [8]: Active
- Activity [9]: Active

SMILES: CCCCCCc1cc2c(o1)c(N)nc1ccccc12
- Activity [1]: Active
- Activity [2]: Active

More lines, now with the values ahead:

- Activity [1]: Active
- Activity [2]: Active
SMILES: CCCCCc1cc2c(o1)c(N)nc1ccccc12

- Activity [2]: inactive
SMILES: Nc1nc2ccccc2c2ccoc12

- Activity [1]: Active
- Activity [2]: Active
SMILES: Cc1cc2c(o1)c(N)nc1ccccc12

- Activity [1]: Active
- Activity [2]: Active
SMILES: CCCc1cc2c(o1)c(N)nc1ccccc12
